The assay concerns the target T1, platelet P2Y1 receptor (Homo sapiens, UniProt P47900).
T1 construct: expressed in transfected cells
Description: P2Y1 receptor binding assay ([β-33P]-2-thiomethyl ADP). The following applies: binding of 0.3 nM [β-33P]-2-thiomethyl ADP, hP2Y1 expressing 132N1 cell membrane, 25° C., 60 minutes.

pIC50: −log10 of the molar value.

This passage reports IC50 results from patent US20080269293A1, “PYRAZOLE DERIVATIVES AS ANTI-PLATELET AND ANTI-THROMBOTIC AGENTS” (Pfizer Inc., priority 2006, published 2008).

As usually defined, the pIC50 is the negative decadic logarithm of the IC50, by convention in mol/L. Read a high pIC50 as a low IC50.

T1 sequence (P47900 whole entry): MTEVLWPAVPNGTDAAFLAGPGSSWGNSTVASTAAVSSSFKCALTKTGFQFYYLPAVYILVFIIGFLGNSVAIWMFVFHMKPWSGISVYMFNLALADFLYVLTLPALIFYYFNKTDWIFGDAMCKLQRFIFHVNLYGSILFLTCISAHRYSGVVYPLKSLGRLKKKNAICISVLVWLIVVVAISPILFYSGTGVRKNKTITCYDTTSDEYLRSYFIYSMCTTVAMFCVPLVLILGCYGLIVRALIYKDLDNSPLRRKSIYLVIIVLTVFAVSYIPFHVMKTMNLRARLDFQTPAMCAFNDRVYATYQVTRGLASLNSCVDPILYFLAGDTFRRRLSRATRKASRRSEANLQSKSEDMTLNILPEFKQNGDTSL

`COC(=O)c1ccc(NC(=O)Nc2ccccc2Oc2cc(C)nn2-c2ccccc2Cl)cc1` [Example 86, 4-(3-{2-[2-(2-Chloro-phenyl)-5-methyl-2H-pyrazol-3-yloxy]-phenyl}-ureido)-benzoic acid methyl ester] showed a pIC50 of 5.30.

On to `Cc1cc(Oc2ccccc2NC(=O)Nc2c(C)cccc2Cl)n(-c2ccccc2)n1` [Example 62], for which the pIC50 was under 5.00.

For `CCc1ccccc1-n1nc(C)cc1Oc1ccccc1NC(=O)Nc1ccc(-n2cncn2)cc1` [Example 112, 1-(4-(1H-1,2,4-triazol-1-yl)phenyl)-3-(2-(1-(2-ethylphenyl)-3-methyl-1H-pyrazol-5-yloxy)phenyl)urea], the pIC50 is under 5.00.

The molecule `Cc1cc(Oc2ccccc2NC(=O)Nc2ccc(C3CCSCC3)cc2)n(-c2ccccc2Cl)n1` [Example 127, 1-(2-(1-(2-chlorophenyl)-3-methyl-1H-pyrazol-5-yloxy)phenyl)-3-(4-(tetrahydro-2H-thiopyran-4-yl)phenyl)urea] gave a pIC50 of 6.80.

As for `Cc1cc(Oc2ccccc2NC(=O)Nc2c(Cl)cccc2C(F)(F)F)n(-c2ccccc2)n1` [Example 59], the negative logarithm of the IC50 (pIC50) is under 5.00.

`CC(C)(C)c1ccc(NC(=O)Nc2ccccc2Oc2cc(C(=O)O)nn2-c2ccccc2)cc1` [Example 27, 5-{2-[3-(4-tert-Butyl-phenyl)-ureido]-phenoxy}-1-phenyl-1H-pyrazole-3-carboxylic acid] showed a pIC50 of 5.14.

With `Cc1cc(Oc2ccccc2NC(=O)Nc2c(C)cccc2C)n(-c2ccccc2)n1` [Example 58], the pIC50 is under 5.00.

`Cc1cc(Oc2ccccc2NC(=O)Nc2ccc(C3CCN(C)CC3)cc2)n(-c2ccccc2Cl)n1` [Example 122, 1-(2-(1-(2-chlorophenyl)-3-methyl-1H-pyrazol-5-yloxy)phenyl)-3-(4-(1-methylpiperidin-4-yl)phenyl)urea] had a pIC50 of under 5.00.
